Tests used:
[1] = system: bird's-eye speedwell (VERPE); assay: Postemergence greenhouse trial, % visual injury on bird's-eye speedwell; format: in vivo, Veronica persica; conditions: VERPE; for % visual injury, Ob: CQC-m 0 g/ha
Method in brief: (§1)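 Herbicide rates g ae/ha, safener (cloquintocet-mexyl) rates g ai/ha; spray carrier 1.5% v/v crop oil concentrate, 187 L/ha, 2nd–3rd leaf stage. Rating: visual % injury at 20-22 d.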

[2] = system: purple deadnettle (LAMPU); assay: Postemergence greenhouse trial, % visual injury on purple deadnettle; format: in vivo, Lamium purpureum; conditions: LAMPU; for % visual injury, Ob: CQC-m 0 g/ha
Method: Seeds of the desired test plant species were planted in Sun Gro MetroMix® 306 planting mixture, which typically has a pH of 6.0 to 6.8 and an organic matter content of about 30 percent, in plastic pots with a surface area of 103.2 square centimeters (cm^2). When required to ensure good germination and healthy plants, a fungicide treatment and/or other chemical or physical treatment was applied. The plants were grown for 7-36 days (d) in a greenhouse with an approximate 14-hour (h) photoperiod which was maintained at about 23° C. during the day and 22° C. during the night. Nutrients and water were added on a regular basis and supplemental lighting was provided with overhead metal halide 1000-Watt lamps as necessary. The plants were employed for testing when they reached the second or third true leaf stage.
Weighed amounts of technical material were dissolved in a volume of 97:3 volume per volume (v/v) acetone/dimethyl sulfoxide (DMSO) to stock solutions. […] The concentrated stock solutions were diluted with an aqueous mixture of 1.5% v/v of Agri-dex crop oil concentrate to provide the appropriate application rates. Compound requirements are based upon a 12 milliliter (mL) application volume at a rate of 187 liters per hectare (L/ha). Stocks solutions of the safeners were prepared following the same procedure. Spray solutions of the safeners and experimental compound mixtures were prepared by adding the stock solutions to the appropriate amount of dilution solution to form a 12 mL spray solution in two-way combinations. Formulated compounds were applied to the plant material with an overhead Mandel track sprayer equipped with 8002E nozzles calibrated to deliver 187 L/ha over an application area of 0.503 square meters (m^2) at a spray height of 18 inches (43 centimeters (cm)) above average plant canopy. Control plants were sprayed in the same manner with the solvent blank. All herbicide application (component a) rates are in g ae/ha and all safener (component b) rates are in g ai/ha.
The treated plants and control plants were placed in a greenhouse as described above and watered by sub-irrigation to prevent wash-off of the test compounds. After 20-22 d, the condition of the test plants as compared with that of the control plants was determined visually and scored on a scale of 0 to 100 percent where 0 corresponds to no injury and 100 corresponds to complete kill. […] Colby's equation was used to determine the herbicidal effects expected from the mixtures. […]

kochia (KCHSC) = assay: Postemergence greenhouse trial, % visual injury on kochia; format: in vivo, Kochia scoparia; conditions: KCHSC; for % visual injury, Ob: CQC-m 0 g/ha
Method in brief: as §1

spring barley (HORVS) = assay: Postemergence greenhouse trial, % visual injury on spring barley; format: in vivo, Hordeum vulgare; conditions: HORVS, CQC-m 0 g/ha
Method in brief: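 Greenhouse crops at second to third true leaf stage sprayed postemergence at 187 L/ha with herbicide (g ae/ha) plus safener (g ai/ha) in acetone/DMSO diluted into 1.5% v/v Agri-dex. Injury scored visually versus solvent-blank controls after 20-22 d, 0 (none) to 100% (complete kill); expected mixture effects by Colby's equation.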

Russian thistle (SASKR) = assay: Postemergence greenhouse trial, % visual injury on Russian thistle; format: in vivo, Salsola kali; conditions: SASKR; for % visual injury, Ob: CQC-m 0 g/ha
pigweed (AMARE) = assay: Postemergence greenhouse trial, % visual injury on pigweed; format: in vivo, Amaranthus retroflexus; conditions: for % visual injury, Ob / % visual injury, observed (Ob): AMARE; for % visual injury, Ob: CQC-m 0 g/ha
Method in brief: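 Injury was scored visually (0 = none, 100 = complete kill) 20–22 d after track-sprayer application at 187 L/ha, compared with solvent-sprayed controls. Test plants at the 2–3 true leaf stage; herbicide (g ae/ha) plus cloquintocet-mexyl safener (g ai/ha) in crop-oil-containing spray; expected mixture response by Colby.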

wild mustard (SINAR) = assay: Postemergence greenhouse trial, % visual injury on wild mustard; format: in vivo, Sinapis arvensis; conditions: SINAR; for % visual injury, Ob: CQC-m 0 g/ha
Method in brief: as §1

[3] = compound 2 4.380 + CQC-m 0 g/ha

Nc1cc(-c2ccc3cc[nH]c3c2F)nc(C(=O)O)c1Cl [compound 15]
% visual injury, Ob ([1]; compound 4.375 g/ha): 85% | % visual injury, Ob ([1]; compound 8.75 g/ha): 85% | % visual injury, Ob ([1]; compound 17.5 g/ha): 90% | % visual injury, Ob ([1]; compound 35 g/ha): 93% | % visual injury, Ob ([1]; compound 70 g/ha): 95% | % visual injury, Ob ([2]; compound 4.375 g/ha): 93% | % visual injury, Ob ([2]; compound 8.75 g/ha): 95% | % visual injury, Ob ([2]; compound 17.5 g/ha): 93% | % visual injury, Ob ([2]; compound 35 g/ha): 93% | % visual injury, Ob ([2]; compound 70 g/ha): 95% | % visual injury, Ob (kochia (KCHSC); compound 4.375 g/ha): 10% | % visual injury, Ob (kochia (KCHSC); compound 8.75 g/ha): 10% | % visual injury, Ob (kochia (KCHSC); compound 17.5 g/ha): 50% | % visual injury, Ob (kochia (KCHSC); compound 35 g/ha): 60% | % visual injury, Ob (kochia (KCHSC); compound 70 g/ha): 75% | % visual injury, Ob (spring barley (HORVS); compound 4.375 g/ha): 0% | % visual injury, Ob (spring barley (HORVS); compound 8.75 g/ha): 0% | % visual injury, Ob (spring barley (HORVS); compound 17.5 g/ha): 0% | % visual injury, Ob (spring barley (HORVS); compound 35 g/ha): 10% | % visual injury, Ob (spring barley (HORVS); compound 70 g/ha): 10% | % visual injury, Ob (Russian thistle (SASKR); compound 4.375 g/ha): 10% | % visual injury, Ob (Russian thistle (SASKR); compound 8.75 g/ha): 10% | % visual injury, Ob (Russian thistle (SASKR); compound 17.5 g/ha): 10% | % visual injury, Ob (Russian thistle (SASKR); compound 35 g/ha): 60% | % visual injury, Ob (Russian thistle (SASKR); compound 70 g/ha): 70% | % visual injury, Ob (pigweed (AMARE); compound 4.375 g/ha): 70% | % visual injury, Ob (pigweed (AMARE); compound 8.75 g/ha): 100% | % visual injury, Ob (pigweed (AMARE); compound 17.5 g/ha): 100% | % visual injury, Ob (pigweed (AMARE); compound 35 g/ha): 100% | % visual injury, Ob (wild mustard (SINAR); compound 4.375 g/ha): 93% | % visual injury, Ob (wild mustard (SINAR); compound 8.75 g/ha): 100% | % visual injury, Ob (wild mustard (SINAR); compound 17.5 g/ha): 100% | % visual injury, Ob (wild mustard (SINAR); compound 35 g/ha): 100% | % visual injury, Ob (wild mustard (SINAR); compound 70 g/ha): 100%

Nc1c(F)c(-c2ccc3cc[nH]c3c2F)nc(C(=O)OCc2ccccc2)c1Cl [compound 2]
% visual injury, observed (Ob) [1, 3]: 75% | % visual injury, observed (Ob) ([1]; compound 2 8.75 + CQC-m 0 g/ha): 95% | % visual injury, observed (Ob) ([1]; compound 2 17.5 + CQC-m 0 g/ha): 100% | % visual injury, observed (Ob) ([1]; compound 2 35 + CQC-m 0 g/ha): 100% | % visual injury, observed (Ob) ([1]; compound 2 70 + CQC-m 0 g/ha): 100% | % visual injury, observed (Ob) [2, 3]: 85% | % visual injury, observed (Ob) ([2]; compound 2 8.75 + CQC-m 0 g/ha): 93% | % visual injury, observed (Ob) ([2]; compound 2 17.5 + CQC-m 0 g/ha): 95% | % visual injury, observed (Ob) ([2]; compound 2 35 + CQC-m 0 g/ha): 100% | % visual injury, observed (Ob) ([2]; compound 2 70 + CQC-m 0 g/ha): 100% | % visual injury, observed (Ob) (kochia (KCHSC); [3]): 93% | % visual injury, observed (Ob) (kochia (KCHSC); compound 2 8.75 + CQC-m 0 g/ha): 95% | % visual injury, observed (Ob) (kochia (KCHSC); compound 2 17.5 + CQC-m 0 g/ha): 98% | % visual injury, observed (Ob) (kochia (KCHSC); compound 2 35 + CQC-m 0 g/ha): 99% | % visual injury, observed (Ob) (kochia (KCHSC); compound 2 70 + CQC-m 0 g/ha): 100% | % visual injury, observed (Ob) (kochia (KCHSC); compound 2 140 + CQC-m 0 g/ha): 95% | % visual injury, observed (Ob) (Russian thistle (SASKR); [3]): 75% | % visual injury, observed (Ob) (Russian thistle (SASKR); compound 2 8.75 + CQC-m 0 g/ha): 85% | % visual injury, observed (Ob) (Russian thistle (SASKR); compound 2 17.5 + CQC-m 0 g/ha): 89% | % visual injury, observed (Ob) (Russian thistle (SASKR); compound 2 35 + CQC-m 0 g/ha): 92% | % visual injury, observed (Ob) (Russian thistle (SASKR); compound 2 70 + CQC-m 0 g/ha): 92% | % visual injury, observed (Ob) (pigweed (AMARE); [3]): 80% | % visual injury, observed (Ob) (pigweed (AMARE); compound 2 8.75 + CQC-m 0 g/ha): 95% | % visual injury, observed (Ob) (pigweed (AMARE); compound 2 17.5 + CQC-m 0 g/ha): 100% | pest or weed control at 35 g/ha (pigweed (AMARE); Amaranthus retroflexus, post-emergence, alone, 35 g/ha, read-out: % visual injury, Ob): 100% | % visual injury, observed (Ob) (wild mustard (SINAR); [3]): 94% | % visual injury, observed (Ob) (wild mustard (SINAR); compound 2 8.75 + CQC-m 0 g/ha): 95% | % visual injury, observed (Ob) (wild mustard (SINAR); compound 2 17.5 + CQC-m 0 g/ha): 99% | % visual injury, observed (Ob) (wild mustard (SINAR); compound 2 35 + CQC-m 0 g/ha): 100% | % visual injury, observed (Ob) (wild mustard (SINAR); compound 2 70 + CQC-m 0 g/ha): 100%
